{"source": "patent US20240279202A1", "about": "(NURIX THERAPEUTICS, INC., priority 2021, published 2024)", "key": {"[1]": {"assay": "Mouse PK analysis (blood/plasma concentration after oral administration)", "type": "in vivo", "details": "mice", "experimental": "Compounds 1, 3, 7, and 42 were formulated and administered at 90 mg/kg to mice by oral gavage (PO). Blood was collected at defined time points (after 1, 2, and 6 hours) after compounds administration to determine PK parameters. Concentration increased through 6 hours. Six hours later mice were sacrificed and splenocytes were isolated and used to prepare protein lysates. Total protein levels were determined in the lysates using the BCA assay according to standard methods. Equal amounts of protein were then analyzed by Western blot to determine the level of ITK expression in each sample. ITK band intensities were measured using Alpha View software and the percent of ITK remaining in each test animal was determined relative to the mean of ITK levels in vehicle control samples.\nCompounds 16, 17, and 18 were administered to mice orally. After 6 hours or 24 hours, splenocytes cells were harvested. ITK was evaluated by Western blotting. Plasma concentrations were determined by LC/MS/MS. Plasma samples were protein precipitated by addition of 100 μl of acetonitrile containing 50 ng/ml of internal standard. The resulting mixture was vortexed and centrifuged at 4000 RPM for 5 minutes. An aliquot of the resultant supernatant (75 μl) was added to 75 μl of 0.1% formic acid in water to constitute the final sample for injection. Samples were injected on a Shimadzu Exion LC Binary Gradient AD Pump HLPC system connected to a Sciex QTRAP 6500+mass spectrometer. Five μl of sample was injected onto a Waters Acquity UPLC BEH C18 column 130A (2.1×30 mm, […]) at 40° C. utilizing a flow rate of 700 μl/minute. Mobile Phase A was 0.1% formic acid in water and mobile phase B was 0.1% formic acid in acetonitrile. A linear gradient of 15-95% B over 1.0 minute was used. The mass spectrometer was operated in positive ion electrospray mode with multiple reaction monitoring for maximum sensitivity. Sciex Analyst software (version 1.6.3) was used for LC/MS/MS instrument control and acquisition. Compound concentration was determined against a standard curve of internal standard versus compound peak area ratio. Noncompartmental PK parameters were determined using […] software (version 8.2.0.4383) from Certara. Plasma concentrations from the LC/MS/MS analyses, dose, route of administration, and desired units were utilized for PK parameter calculations. […] FIG. 4C provides the concentration over time of compound 17 following in vivo oral administration in the 6 hour and 24 hour assays.\nCmax, Tmax and AUClast were all calculated using a WinNonLin Phoenix 64 v 8.2.0.4383. Using non-compartmental analysis, Tmax, Cmax and AUClast were determined as follows: • Tmax—Time of maximum observed concentration. • Cmax—Maximum observed concentration, occurring at time Tmax, as defined above. • AUClast—Area under the curve from the time of dosing to the time of the last measurable (positive) concentration (Tlast)."}, "ITK": {"biological_target": "T1, ITK (Homo sapiens, UniProt Q08881)", "T1 sequence (Q08881 1-620)": "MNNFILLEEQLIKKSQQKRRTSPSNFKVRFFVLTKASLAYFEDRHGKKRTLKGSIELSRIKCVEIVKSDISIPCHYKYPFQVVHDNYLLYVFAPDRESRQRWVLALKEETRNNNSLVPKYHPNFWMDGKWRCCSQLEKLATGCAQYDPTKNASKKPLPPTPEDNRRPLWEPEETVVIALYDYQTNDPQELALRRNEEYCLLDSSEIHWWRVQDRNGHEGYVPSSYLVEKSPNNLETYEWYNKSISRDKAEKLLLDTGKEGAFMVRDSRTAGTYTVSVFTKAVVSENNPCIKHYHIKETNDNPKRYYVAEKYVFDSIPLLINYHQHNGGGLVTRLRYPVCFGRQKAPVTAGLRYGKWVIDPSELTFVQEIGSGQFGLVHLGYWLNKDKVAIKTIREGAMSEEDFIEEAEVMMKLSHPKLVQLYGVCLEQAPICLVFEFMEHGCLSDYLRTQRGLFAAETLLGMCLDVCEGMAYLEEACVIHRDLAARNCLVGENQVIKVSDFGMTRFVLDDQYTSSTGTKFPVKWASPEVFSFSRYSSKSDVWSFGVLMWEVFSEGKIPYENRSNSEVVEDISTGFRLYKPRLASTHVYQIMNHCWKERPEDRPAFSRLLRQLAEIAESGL", "assay": "ITK degradation MSD (Meso Scale Discovery) assay", "type": "cell-based", "set-up": "either human Jurkat (Clone E6-1 ATCC TIB-152) or Motl4 (ATCC CRL-1552), were plated; endogenous in cells; host or cells: Jurkat clone E6-1 (ATCC TIB-152) or Molt4 (ATCC CRL-1552)", "details": "Jurkat or Molt4 cells, 4 or 6 hrs", "experimental": "ITK Degradation MSD (Meso Scale Discovery) Assay Compound dilution series (7-point, 5 fold dilutions in DMSO, rows B-H with replicate in Column 1⁄2, 3⁄4, 5⁄6, 7,8, at 2000× the final required concentrations were prepared in 96 well plates (Falcon, cat. no. 353077). Row A, Column 1-8 were control DMSO. The 2000× solutions ranged from 2 mM to 128 nM (final assay concentration range 1 μM to […]). The 2000× solutions were added to cells in […], for a final DMSO concentration of 0.5% and final assay compound concentration of 1×. For the cells, either human Jurkat (Clone E6-1 ATCC TIB-152) or Motl4 (ATCC CRL-1552), were plated at 1×10^6 cells/mL, 100 μL/well ([…]) in complete RPMI (10% FBS, 1% L-glutamine). Cells were incubated for 4 or 6 hrs at 32° C./6% CO2. Following incubation, plates were centrifuged at 1200 rpm for 5 min. supernatant was removed and 50 μL of cell lysis buffer ((MSD Tris lysis buffer (R60TX), Complete Mini EDTA-free protease inhibitor (Sigma 11836170001), Protease Inhibitor Cocktail (Sigma, P2714), Phosphatase Inhibitor Cocktail 2 and 3 (Sigma, P5726 and P0044), and Benzonase (Sigma, E1014)) was added to each well. Plates were sealed and shook at 4° C. for 30 min. Plates were centrifuged and 45 μL was removed for plate assays. Assay plate preparation: Meso Scale Discovery (MSD) multi-array sm spot 96 well plates (Goat anti-Rabbit L^45-RA), were blocked with 3% BSA blocking buffer (3% Bovine Serum Albumin (Sigma A3059)+TBS 0.2% Tween-20) for 1 hr with gentle rocking at room temperature. Plates were then washed with 200 μL of 1× TBST (TBS 0.2% Tween-20) 3 times. After last wash, liquid was removed and 50 μL per well of capture antibody (abcam ITK Y402-ab32507) was added to plates at a 1:1000 dilution in blocking buffer (above). Plates were sealed and rocked at room temperature for 2 hrs. Plates were then washed 3 times with 200 μL of 1× TBST. After last wash, liquid was removed and 45 μL of cell lysate (from above) was added to each plate. Plates were sealed and rocked overnight at 4° C. Next day, cell lysates were removed, and assay plates were washed 3 times with 200 μL of 1× TBST. After last wash, liquid was removed and detection antibody (CST ITK (2F12) #2380) was added at 50 μL per well at a dilution of 1:1000 in blocking buffer. Plates were sealed and rocked at room temperature for 2 hrs. Plates were washed 3 times with 200 uL of 1× TBST. After last wash, liquid was removed, MSD Mouse anti-Rabbit sulfo tag (R32AC-1) was diluted to 1:1000 in blocking buffer. 50 μL was added to each well on the plate. Plates were sealed and incubated at room temperature for 1 hr. Plates were washed 3 times with 200 μL of 1× TBST. After last wash, liquid was removed and 150 μL of 1× MSD Read Buffer T ([…]) was then added to each well for ECL read out. For reading ECL signal, plate is read on a Meso Scale Discovery (MSD) MESO Sector S 600 plate reader. Percent ITK in then calculated as described below. Percent ITK remaining per sample was calculated as follows: [formula] Using Graphpad Prism, % ITK remaining values were plotted as a function of compound concentration. To determine DC50 and Dmax values, resulting curves were fit to the Prism curve-fitting equation “log(inhibitor) vs response-Variable slope (four parameters)” (reported best fit value IC50 used as DC50)."}}}
{"smiles": "C[C@@]12Cc3[nH]nc(C(=O)Nc4cnn([C@H](c5ccccc5)C5CN(C(=O)C6CCN(c7ccc(C(=O)NC8CCC(=O)NC8=O)nc7)CC6)C5)c4)c3C[C@@H]1C2(F)F", "note": "(stereo partly drawn) [Compound 40, (4aS,5aR)-N-(1-((1S)-(1-(1-(6-((2,6-dioxopiperidin-3-yl)carbamoyl)pyridin-3-yl)piperidine-4-carbonyl)azetidin-3-yl)(phenyl)methyl)-1H-pyrazol-4-yl)-5,5-difluoro-5a-methyl-1,4,4a,5,5a,6-hexahydrocyclopropa[f]indazole-3-carboxamide]", "values": [{"measurement": "Cal. Conc. Total (μM) 2 h", "setting": "[1]; 2 h", "value": "BQL"}, {"measurement": "concentration at 6 h", "setting": "[1]; mouse, plasma, oral, 90 mg/kg, 6 h, read-out: Cal. Conc. Total (μM) 6 h", "value": 0.009, "unit": "µM"}, {"measurement": "Dmax", "setting": "ITK", "value": 46, "unit": "%"}]}
